Source: paper PMC12454493, “Insight on novel sulfamoylphenyl pyrazole derivatives as anticancer carbonic anhydrase inhibitors” (Molecular Diversity, 2024)
Where “and” joins values, the source holds several entries; their conditions need not be identical. Equal values may be shown once.

How the values were obtained:
HT29 = assay: NCI-60 one-dose SRB screen (Colon Cancer); assay type: cell-based; details: Homo sapiens, HT-29, single dose 10 µM, 48 h, read-out: Growth inhibition percent (GI %)
SW-620 = assay: NCI-60 one-dose SRB screen (Colon Cancer); assay type: cell-based; details: Homo sapiens, single dose 10 µM, 48 h, read-out: Growth inhibition percent (GI %)
COLO 205 = assay: NCI-60 one-dose SRB screen (Colon Cancer); assay type: cell-based; details: Homo sapiens, single dose 10 µM, 48 h, read-out: Growth inhibition percent (GI %)
HCT-15 = assay: NCI-60 one-dose SRB screen (Colon Cancer); assay type: cell-based; details: Homo sapiens, single dose 10 µM, 48 h, read-out: Growth inhibition percent (GI %)
HCC-2998 = assay: NCI-60 one-dose SRB screen (Colon Cancer); assay type: cell-based; details: Homo sapiens, single dose 10 µM, 48 h, read-out: Growth inhibition percent (GI %)
HCT-116 = assay: NCI-60 one-dose SRB screen (Colon Cancer); assay type: cell-based; details: Homo sapiens, single dose 10 µM, 48 h, read-out: Growth inhibition percent (GI %)
KM12 = assay: NCI-60 one-dose SRB screen (Colon Cancer); assay type: cell-based; details: Homo sapiens, single dose 10 µM, 48 h, read-out: Growth inhibition percent (GI %)
HS 578T = assay: NCI-60 one-dose SRB screen (Breast Cancer); assay type: cell-based; details: Homo sapiens, single dose 10 µM, 48 h, read-out: Growth inhibition percent (GI %)
MCF-7 = assay: NCI-60 one-dose SRB screen (Breast Cancer); assay type: cell-based; details: Homo sapiens, MCF7, single dose 10 µM, 48 h, read-out: Growth inhibition percent (GI %)
MDA-MB-231/ATCC = assay: NCI-60 one-dose SRB screen (Breast Cancer); assay type: cell-based; details: Homo sapiens, single dose 10 µM, 48 h, read-out: Growth inhibition percent (GI %)
T-47D = assay: NCI-60 one-dose SRB screen (Breast Cancer); assay type: cell-based; details: Homo sapiens, T47D, single dose 10 µM, 48 h, read-out: Growth inhibition percent (GI %)
SK-OV-3 = assay: NCI-60 one-dose SRB screen (Ovarian cancer); assay type: cell-based; details: Homo sapiens, single dose 10 µM, 48 h, read-out: Growth inhibition percent (GI %)
IGROV1 = assay: NCI-60 one-dose SRB screen (Ovarian cancer); assay type: cell-based; details: Homo sapiens, IGROV-1, single dose 10 µM, 48 h, read-out: Growth inhibition percent (GI %)
OVCAR-8 = assay: NCI-60 one-dose SRB screen (Ovarian cancer); assay type: cell-based; details: Homo sapiens, single dose 10 µM, 48 h, read-out: Growth inhibition percent (GI %)
OVCAR-4 = assay: NCI-60 one-dose SRB screen (Ovarian cancer); assay type: cell-based; details: Homo sapiens, single dose 10 µM, 48 h, read-out: Growth inhibition percent (GI %)
OVCAR-5 = assay: NCI-60 one-dose SRB screen (Ovarian cancer); assay type: cell-based; details: Homo sapiens, single dose 10 µM, 48 h, read-out: Growth inhibition percent (GI %)
OVCAR-3 = assay: NCI-60 one-dose SRB screen (Ovarian cancer); assay type: cell-based; details: Homo sapiens, single dose 10 µM, 48 h, read-out: Growth inhibition percent (GI %)
NCI-H460 = assay: NCI-60 one-dose SRB screen (Non-Small Cell Lung Cancer); assay type: cell-based; details: Homo sapiens, single dose 10 µM, 48 h, read-out: Growth inhibition percent (GI %)
NCI-H226 = assay: as above; assay type: cell-based; details: Homo sapiens, single dose 10 µM, 48 h, read-out: Growth inhibition percent (GI %)
NCI-H23 = assay: as above; assay type: cell-based; details: Homo sapiens, single dose 10 µM, 48 h, read-out: Growth inhibition percent (GI %)
NCI-H322M = assay: as above; assay type: cell-based; details: Homo sapiens, single dose 10 µM, 48 h, read-out: Growth inhibition percent (GI %)
NCI-H522 = assay: as above; assay type: cell-based; details: Homo sapiens, single dose 10 µM, 48 h, read-out: Growth inhibition percent (GI %)
HOP-92 = assay: as above; assay type: cell-based; details: Homo sapiens, single dose 10 µM, 48 h, read-out: Growth inhibition percent (GI %)
A549/ATCC = assay: as above; assay type: cell-based; details: Homo sapiens, single dose 10 µM, 48 h, read-out: Growth inhibition percent (GI %)
EKVX = assay: as above; assay type: cell-based; details: Homo sapiens, single dose 10 µM, 48 h, read-out: Growth inhibition percent (GI %)
HOP-62 = assay: as above; assay type: cell-based; details: Homo sapiens, single dose 10 µM, 48 h, read-out: Growth inhibition percent (GI %)
UACC-257 = assay: NCI-60 one-dose SRB screen (Melanoma); assay type: cell-based; details: Homo sapiens, single dose 10 µM, 48 h, read-out: Growth inhibition percent (GI %)
UACC-62 = assay: NCI-60 one-dose SRB screen (Melanoma); assay type: cell-based; details: Homo sapiens, single dose 10 µM, 48 h, read-out: Growth inhibition percent (GI %)
SK-MEL-5 = assay: NCI-60 one-dose SRB screen (Melanoma); assay type: cell-based; details: Homo sapiens, single dose 10 µM, 48 h, read-out: Growth inhibition percent (GI %)
LOX IMVI = assay: NCI-60 one-dose SRB screen (Melanoma); assay type: cell-based; details: Homo sapiens, single dose 10 µM, 48 h, read-out: Growth inhibition percent (GI %)
SK-MEL-28 = assay: NCI-60 one-dose SRB screen (Melanoma); assay type: cell-based; details: Homo sapiens, single dose 10 µM, 48 h, read-out: Growth inhibition percent (GI %)
MDA-MB-435 = assay: NCI-60 one-dose SRB screen (Melanoma); assay type: cell-based; details: Homo sapiens, single dose 10 µM, 48 h, read-out: Growth inhibition percent (GI %)
M14 = assay: NCI-60 one-dose SRB screen (Melanoma); assay type: cell-based; details: Homo sapiens, single dose 10 µM, 48 h, read-out: Growth inhibition percent (GI %)
MALME-3M = assay: NCI-60 one-dose SRB screen (Melanoma); assay type: cell-based; details: Homo sapiens, single dose 10 µM, 48 h, read-out: Growth inhibition percent (GI %)
PC-3 = assay: NCI-60 one-dose SRB screen (Prostate Cancer); assay type: cell-based; details: Homo sapiens, single dose 10 µM, 48 h, read-out: Growth inhibition percent (GI %)
DU-145 = assay: NCI-60 one-dose SRB screen (Prostate Cancer); assay type: cell-based; details: Homo sapiens, single dose 10 µM, 48 h, read-out: Growth inhibition percent (GI %)
hCA IX = hCA IX (Homo sapiens, UniProt Q16790); assay: CA inhibitory activity, spectrophotometric p-NPA assay; assay type: biochemical; details: p-NPA substrate, pH 7.5, 25 °C, triplicate; read-out: IC50 (µM) ± SD hCA IX
CCRF-CEM = assay: NCI-60 one-dose SRB screen (Leukemia); assay type: cell-based; details: Homo sapiens, single dose 10 µM, 48 h, read-out: Growth inhibition percent (GI %)
SR = assay: NCI-60 one-dose SRB screen (Leukemia); assay type: cell-based; details: Homo sapiens, single dose 10 µM, 48 h, read-out: Growth inhibition percent (GI %)
MOLT-4 = assay: NCI-60 one-dose SRB screen (Leukemia); assay type: cell-based; details: Homo sapiens, single dose 10 µM, 48 h, read-out: Growth inhibition percent (GI %)
K-562 = assay: NCI-60 one-dose SRB screen (Leukemia); assay type: cell-based; details: Homo sapiens, K562, single dose 10 µM, 48 h, read-out: Growth inhibition percent (GI %)
RPMI-8226 = assay: NCI-60 one-dose SRB screen (Leukemia); assay type: cell-based; details: Homo sapiens, single dose 10 µM, 48 h, read-out: Growth inhibition percent (GI %)
HL-60(TB) = assay: NCI-60 one-dose SRB screen (Leukemia); assay type: cell-based; details: Homo sapiens, single dose 10 µM, 48 h, read-out: Growth inhibition percent (GI %)
NCI/ADR-RES = assay: NCI-60 one-dose SRB screen (Ovarian cancer); assay type: cell-based; details: Homo sapiens, single dose 10 µM, 48 h, read-out: Growth inhibition percent (GI %)
SK-MEL-2 = assay: NCI-60 one-dose SRB screen (Melanoma); assay type: cell-based; details: Homo sapiens, single dose 10 µM, 48 h, read-out: Growth inhibition percent (GI %)

With NS(=O)(=O)c1ccc(NC(=O)COC(=O)c2cn(-c3ccc(S(N)(=O)=O)cc3)nc2-c2ccc(Br)cc2)cc1 [Compound 4d, 2-Oxo-2-[(4-sulfamoylphenyl)amino] ethyl 3-(4-bromophenyl)-1-(4-sulfamoylphenyl)-1H-pyrazole-4-carboxylate] the inhibition at 10 µM (HT29) was < 5%, the inhibition at 10 µM (SW-620) was < 5% and the inhibition at 10 µM (COLO 205) was 8.46%. The inhibition at 10 µM (HCT-15) was 10.6%, the inhibition at 10 µM (HCC-2998) was < 5% and the inhibition at 10 µM (HCT-116) was 84.6%. For the same molecule, the inhibition at 10 µM (KM12) was < 5%, the inhibition at 10 µM (HS 578T) was 36.9% and the inhibition at 10 µM (MCF-7) was 56.4%. For the same molecule, the inhibition at 10 µM (MDA-MB-231/ATCC) was 33.9%, the inhibition at 10 µM (T-47D) was 52.3% and the inhibition at 10 µM (SK-OV-3) was < 5%. The inhibition at 10 µM (IGROV1) was < 5%, the inhibition at 10 µM (OVCAR-8) was < 5% and the inhibition at 10 µM (OVCAR-4) was 34.6%. The inhibition at 10 µM (OVCAR-5) was 12.3%, the inhibition at 10 µM (OVCAR-3) was 23% and the inhibition at 10 µM (NCI-H460) was < 5%. For the same molecule, the inhibition at 10 µM (NCI-H226) was < 5%, the inhibition at 10 µM (NCI-H23) was < 5% and the inhibition at 10 µM (NCI-H322M) was 21.5%. For the same molecule, the inhibition at 10 µM (NCI-H522) was 19.8%, the inhibition at 10 µM (HOP-92) was 49.6% and the inhibition at 10 µM (A549/ATCC) was < 5%. The inhibition at 10 µM (EKVX) was 21%, the inhibition at 10 µM (HOP-62) was < 5% and the inhibition at 10 µM (UACC-257) was < 5%. For the same molecule, the inhibition at 10 µM (UACC-62) was 11.9%, the inhibition at 10 µM (SK-MEL-5) was 14.3% and the inhibition at 10 µM (LOX IMVI) was 47.7%. For the same molecule, the inhibition at 10 µM (SK-MEL-28) was < 5%, the inhibition at 10 µM (MDA-MB-435) was 60.1% and the inhibition at 10 µM (M14) was 79.6%. The inhibition at 10 µM (MALME-3M) was < 5%, the inhibition at 10 µM (PC-3) was 23.1% and the inhibition at 10 µM (DU-145) was < 5%. The IC50 (hCA IX) was 0.5 µM and 0.509 µM, the inhibition at 10 µM (CCRF-CEM) was 60.2% and the inhibition at 10 µM (SR) was 22.9%. For the same molecule, the inhibition at 10 µM (MOLT-4) was 60.1%, the inhibition at 10 µM (K-562) was 82.5% and the inhibition at 10 µM (RPMI-8226) was < 5%. For the same molecule, the inhibition at 10 µM (HL-60(TB)) was 37.6%.

With CCOC(=O)c1ccc(NC(=O)COC(=O)c2cn(-c3ccc(S(N)(=O)=O)cc3)nc2-c2ccc(C)cc2)cc1 [Compound 5b, 2-[(4-(Ethoxycarbonyl)phenyl)amino]-2-oxoethyl 1-(4-sulfamoylphenyl)-3-(p-tolyl)-1H-pyrazole-4-carboxylate] the inhibition at 10 µM (HT29) was 64.4%, the inhibition at 10 µM (SW-620) was 37% and the inhibition at 10 µM (COLO 205) was 42.3%. For the same molecule, the inhibition at 10 µM (HCT-15) was 65.7%, the inhibition at 10 µM (HCC-2998) was 47% and the inhibition at 10 µM (HCT-116) was 60.7%. It also gave an inhibition at 10 µM (KM12) of 70.3%, an inhibition at 10 µM (HS 578T) of 57.9% and an inhibition at 10 µM (MCF-7) of 78.6%. The inhibition at 10 µM (MDA-MB-231/ATCC) was 27.8%, the inhibition at 10 µM (T-47D) was 53.5% and the inhibition at 10 µM (SK-OV-3) was < 5%. It also gave an inhibition at 10 µM (IGROV1) of 21.4%, an inhibition at 10 µM (OVCAR-8) of 12.8% and an inhibition at 10 µM (OVCAR-4) of 58.8%. For the same molecule, the inhibition at 10 µM (NCI/ADR-RES) was 22.3%, the inhibition at 10 µM (OVCAR-5) was 33.1% and the inhibition at 10 µM (OVCAR-3) was 53.5%. For the same molecule, the inhibition at 10 µM (NCI-H460) was 60.8%, the inhibition at 10 µM (NCI-H226) was 43% and the inhibition at 10 µM (NCI-H23) was 40.3%. It also gave an inhibition at 10 µM (NCI-H322M) of 23.7%, an inhibition at 10 µM (NCI-H522) of 49% and an inhibition at 10 µM (HOP-92) of 56.3%. The inhibition at 10 µM (A549/ATCC) was 51.1%, the inhibition at 10 µM (EKVX) was 55.6% and the inhibition at 10 µM (HOP-62) was < 5%. It also gave an inhibition at 10 µM (UACC-257) of 39.1%, an inhibition at 10 µM (UACC-62) of 53.4% and an inhibition at 10 µM (SK-MEL-5) of 39.3%. For the same molecule, the inhibition at 10 µM (LOX IMVI) was 53.6%, the inhibition at 10 µM (SK-MEL-28) was 48.2% and the inhibition at 10 µM (SK-MEL-2) was 27.9%. The inhibition at 10 µM (MDA-MB-435) was 47.3%, the inhibition at 10 µM (M14) was 56.9% and the inhibition at 10 µM (MALME-3M) was 35.5%. For the same molecule, the inhibition at 10 µM (PC-3) was 68.7%, the inhibition at 10 µM (DU-145) was 28.9% and the inhibition at 10 µM (CCRF-CEM) was 75.4%. It also gave an inhibition at 10 µM (SR) of 73.4%, an inhibition at 10 µM (MOLT-4) of 83.8% and an inhibition at 10 µM (K-562) of 74.5%. The inhibition at 10 µM (RPMI-8226) was 64.1% and the inhibition at 10 µM (HL-60(TB)) was 70.2%.
